# Legend:
# [1] = system: HDV; conditions: in vitro; cited from earlier work
# [2] = system: WHV; assay: Woodchuck model of chronic HDV infection: serum WHV DNA; format: in vivo
# Procedure: (§1) The woodchuck was used as an experimental model of chronic HDV infection to assess the effect of L-FMAU treatment on HDV replication. Woodchucks chronically infected with WHV were infected with a woodchuck-adapted HDV inoculum derived from a laboratory infectious clone. Nine of eleven infected animals were determined to have chronic HDV infection, as defined by RT/PCR-detectable HDV viremia (Niro et al. (1997) Hepatology 25, 728-734) for at least 74% of bleed dates for at least 11 months prior to the initiation of treatment. The range of duration of viremia prior to the start of the study was 11.4-20 months; the range of positive bleed dates was 74% to 100%. Animals in the treatment group (4) were given 10 mg/kg L-FMAU daily; animals in the control group (5) were given placebo. Serum samples were obtained before the initiation of treatment, and at weeks 2, 4, 8, 12, 16 and 20. Serum samples were analyzed for WHV DNA, WHV surface antigen and HDV RNA.
# [3] = system: WHV surface antigen; assay: Woodchuck model of chronic HDV infection: serum WHV surface antigen; format: in vivo
# Procedure: as §1
# [4] = system: HDV; assay: Woodchuck model of chronic HDV infection: serum HDV RNA; format: in vivo
# Procedure: as §1
# [5] = system: HDV; conditions: in vivo; cited from earlier work
# [6] = system: hepatocytes; conditions: cited from earlier work
# [7] = one animal in the treated group, animal 4543
structure (smiles),measurement,setting,value
Nc1nc2c(ncn2COCCO)c(=O)[nH]1 [Acyclovir],HDV replication,[1],enhances
"Cc1cn([C@H]2O[C@@H](CO)[C@H](O)[C@H]2F)c(=O)[nH]c1=O [L-FMAU, 2′-fluoro-5-methyl-β-L-arabinofuranosyl-uridine]",decrease in serum WHV DNA,"[2]; 10 mg/kg L-FMAU daily, by 4 weeks of treatment, all treated animals (FIG. 6B)",> 10^7 fold
same,serum WHV-DNA (FIG. 6B),[2]; over twenty weeks of treatment,significant decrease
same,decrease in surface antigen levels,"[3]; 10 mg/kg L-FMAU daily, by 12 weeks, all but one (animal 4543) of the treated animals (FIG. 6C)","~1,000 fold"
same,"levels of surface antigen, animal 4543",[3]; [7],did not exhibit decreased levels
same,serum WHsAg (FIG. 6C),[3]; over twenty weeks of treatment,significant decrease
same,surface antigen concentration after which HDV viremia became undetectable,"[3]; treated animals with decreased surface antigen, sustained for remainder of treatment",less than 1 microgram/mL
same,drop of WHsAg levels during treatment,"[3]; treated woodchucks 4878, 4879 and 4883",more than 100 fold
same,HDV RNA in serum,"[4]; 10 mg/kg L-FMAU daily, by 16 weeks of treatment (FIG. 6A)",undetectable in ¾ treated animals
same,"HDV viremia, animal 4543",[4]; [7],remained high
same,serum HDV-RNA (FIG. 6A),[4]; over twenty weeks of treatment,significant decrease
same,mean serum HDV RNA,"[4]; woodchucks 4878, 4879, 4883, by 8 weeks of treatment vs start of treatment and vs five untreated animals (FIG. 8)",dramatic decline
NC(=O)c1ncn([C@@H]2O[C@H](CO)[C@@H](O)[C@H]2O)n1 [Ribavirin],side-effects,[5],severe side-effects
same,virological or biochemical parameters,[5],did not significantly affect
Cc1ccc(C(=O)Nc2ccc(S(=O)(=O)O)c3cc(S(=O)(=O)O)cc(S(=O)(=O)O)c23)cc1NC(=O)c1cccc(NC(=O)Nc2cccc(C(=O)Nc3cc(C(=O)Nc4ccc(S(=O)(=O)O)c5cc(S(=O)(=O)O)cc(S(=O)(=O)O)c45)ccc3C)c2)c1 [suramin],entry of the virion into hepatocytes,[6],blocks

# From patent US7511027B2, “Method of treating hepatitis delta virus infection” (Georgetown University, priority 2000, dated 2009)
